Molecular target: T1, CCR9 (Homo sapiens, UniProt P51686)
T1 construct: host or cells: HEK293T, transient
T1 sequence (P51686 1-369): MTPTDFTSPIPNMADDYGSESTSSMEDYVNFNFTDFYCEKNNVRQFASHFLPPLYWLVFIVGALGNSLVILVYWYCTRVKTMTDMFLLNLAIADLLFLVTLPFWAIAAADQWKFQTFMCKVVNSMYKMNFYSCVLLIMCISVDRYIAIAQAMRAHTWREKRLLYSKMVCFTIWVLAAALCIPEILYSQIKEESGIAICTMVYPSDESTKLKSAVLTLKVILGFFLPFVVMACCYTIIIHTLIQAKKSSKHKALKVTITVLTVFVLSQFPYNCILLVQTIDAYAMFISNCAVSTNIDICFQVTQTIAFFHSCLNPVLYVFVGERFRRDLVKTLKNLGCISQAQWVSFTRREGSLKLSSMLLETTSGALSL
Experiment: Membrane-based NanoBRET saturation binding assay, CCR9_Nluc membranes
Details: compared with CCR1
Experimental: Emission spectra of Nluc -labeled CCR1 (CCR1_Nluc) protein: The emission spectra of CCR1_Nluc has already been reported by Toy et al.1 For a confirmation of the reported data with new CCR1_Nluc membrane batches, furimazine (Promega, Mannheim, Germany 1:2000) was added to the membrane preparations (2 µg protein/well). […]
NanoBRET binding assays: Membrane-based NanoBRET saturation assay: For the establishment of our NanoBRET binding assay, we referred to recently published protocols. […]
Then, 20 µL of the membrane preparations diluted in assay buffer (3 µg total protein/well) were added and the plates were incubated for 90 min at 37 °C. Subsequently, 5 µL of a furimazine solution (Promega, Mannheim, Germany, final assay dilution: 1:5,000) were added to each well (final assay volume: 35 µL) before measuring luminescence with a CLARIOstar microplate reader using 620/10 nm and 475/30 nm emission filters after 5 min of incubation in the dark. Bioluminescence resonance energy transfer (BRET) was determined as the ratio of acceptor fluorescence and donor luminescence. […] Specific binding signals were calculated as a difference of total and non-specific binding. If required, netBRET values were calculated as the difference between total BRET values and the values obtained in the absence of a fluorescent ligand. […]

Q: `CN(C)c1ccc2c(-c3cc(C(=O)NCCOCCOCc4cn(CCCC(=O)C5=C(O)C(=O)N(c6ccc(Br)cc6F)C5C5CCCCC5)nn4)ccc3C(=O)[O-])c3ccc(=[N+](C)C)cc-3oc2c1` (stereo not shown) [compound 12] was tested. Which “Binding signal for CCR9” value did it give?
A: The value was “much weaker”.
